Reference: PubChem BioAssay AID330 (DTP/NCI, 2004)
“And” between values parts separate entries of the source, which are not always exact repeats. Equal entries are not always repeated. Inconclusive results and toxic doses are left out. How the source made its calls: active means survival T/C of 150% or more; inactive means T/C below 125% in these data.

Tested on: P388 leukemia ip, CD2F1 mice, survival T/C
Assay: NCI In Vivo Anticancer Drug Screen. Data for tumor model P388 Leukemia (intraperitoneal) in CD2F1 (CDF1) mice
Settings: endpoint: median survival time, higher = longer survival
Method in brief: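 Mice carrying the transplanted tumor received test compound or vehicle. Survival was recorded in each group, and the value is the treated-group measurement divided by that of the vehicle-treated control group.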

[1] = dose: 50.0 mg/kg/injection, schedule: Q01DX005 (ip), vehicle: Klucel (hydroxypropylcellulose) (HPC)
[2] = dose: 100.0 mg/kg/injection, schedule: Q01DX005 (ip), vehicle: Klucel (hydroxypropylcellulose) (HPC)
[3] = dose: 200.0 mg/kg/injection, schedule: Q01DX005 (ip), vehicle: Klucel (hydroxypropylcellulose) (HPC)
[4] = dose: 50.0 mg/kg/injection, schedule: Q01DX009 (ip), vehicle: saline with Tween-80
[5] = dose: 100.0 mg/kg/injection, schedule: Q01DX009 (ip), vehicle: saline with Tween-80
[6] = dose: 200.0 mg/kg/injection, schedule: Q01DX009 (ip), vehicle: saline with Tween-80
[7] = dose: 12.5 mg/kg/injection, schedule: Q01DX009 (ip), vehicle: saline with Tween-80
[8] = dose: 25.0 mg/kg/injection, schedule: Q01DX009 (ip), vehicle: saline with Tween-80
[9] = dose: 50.0 mg/kg/injection, schedule: Q01DX009 (ip), vehicle: saline

Measured: T/C

NC(=O)COC1OC(CO)C(O)C(O)C1O (centres undefined)
inactive: [1] 97 % of control | [2] 100 % of control | [3] 107 % of control

CNC(=O)c1ccccc1C(O)c1ccc(C)cc1 (centres undefined)
inactive: [4] 105 % of control | [5] 99 % of control | [6] 99 % of control

Nc1nnc(Cc2nnc(N)o2)o1
inactive: dose: 50.0 mg/kg/injection, schedule: Q01DX005 (ip), vehicle: saline with Tween-80 101 % of control | dose: 100.0 mg/kg/injection, schedule: Q01DX005 (ip), vehicle: saline with Tween-80 101 % of control | dose: 200.0 mg/kg/injection, schedule: Q01DX005 (ip), vehicle: saline with Tween-80 98 % of control

COc1ccc(C(C)c2cc(C(C)(C)C)c(O)c(C(C)(C)C)c2)cc1 (centres undefined)
inactive: dose: 50.0 mg/kg/injection, schedule: Q01DX005 (ip), vehicle: distilled water + alcohol 103 % of control | dose: 100.0 mg/kg/injection, schedule: Q01DX005 (ip), vehicle: distilled water + alcohol 100 % of control | dose: 200.0 mg/kg/injection, schedule: Q01DX005 (ip), vehicle: distilled water + alcohol 105 % of control

CCCC(=O)CC(=O)Nc1ccccc1
inactive: dose: 100.0 mg/kg/injection, schedule: Q01DX001 (ip), vehicle: saline 109 % of control | dose: 200.0 mg/kg/injection, schedule: Q01DX001 (ip), vehicle: saline 118 % of control | dose: 400.0 mg/kg/injection, schedule: Q01DX001 (ip), vehicle: saline 118 % of control

CCn1c2ccc(C=O)cc2c2cc([N+](=O)[O-])ccc21
inactive: [1] 92 % of control | [2] 86 % of control | [3] 86 % of control

COC(=O)c1nc(Cl)[nH]c1CC#N
inactive: dose: 50.0 mg/kg/injection, schedule: Q01DX005 (ip), vehicle: saline 103 % of control | dose: 100.0 mg/kg/injection, schedule: Q01DX005 (ip), vehicle: saline 112 % of control | dose: 200.0 mg/kg/injection, schedule: Q01DX005 (ip), vehicle: saline 105 % of control

COC1=C(OC)S[C@H]2C3CC([C@H]2S1)[C@@H]1SC(OC)=C(OC)S[C@H]31
inactive: [1] 97 % of control | [2] 97 % of control | [3] 98 % of control

CC(=O)O[C@@H]1C[C@H](O)[C@@]23COC(O)[C@H]1[C@@H]2C[C@@H](O)[C@@]1(C)C2C(=O)C[C@@H](c4ccoc4)[C@]2(C)CC[C@@H]13 (some centres undefined)
inactive: dose: 2.4 mg/kg/injection, schedule: Q01DX009 (ip), vehicle: Klucel (hydroxypropylcellulose) (HPC) 99 % of control | dose: 18.75 micrograms/kg/injection, schedule: Q01DX009 (ip), vehicle: Klucel (hydroxypropylcellulose) (HPC) 107 % of control | dose: 37.5 micrograms/kg/injection, schedule: Q01DX009 (ip), vehicle: Klucel (hydroxypropylcellulose) (HPC) 117 % of control | dose: 75.0 micrograms/kg/injection, schedule: Q01DX009 (ip), vehicle: Klucel (hydroxypropylcellulose) (HPC) 96 % of control | dose: 150.0 micrograms/kg/injection, schedule: Q01DX009 (ip), vehicle: Klucel (hydroxypropylcellulose) (HPC) 101 % of control

COc1cc(/C=N/n2c(-c3ccccc3)nc3ccccc3c2=O)cc(Br)c1O
inactive: dose: 60.0 mg/kg/injection, schedule: Q01DX005 (ip), vehicle: Klucel (hydroxypropylcellulose) (HPC) 89 % of control | dose: 120.0 mg/kg/injection, schedule: Q01DX005 (ip), vehicle: Klucel (hydroxypropylcellulose) (HPC) 87 % of control | dose: 240.0 mg/kg/injection, schedule: Q01DX005 (ip), vehicle: Klucel (hydroxypropylcellulose) (HPC) 87 % of control

CNC(=O)OCc1nc(-c2ccccc2)n(C)c1COC(=O)NC
inactive: dose: 12.5 mg/kg/injection, schedule: Q01DX005 (ip), vehicle: distilled water + Tween-80 98 % of control | dose: 25.0 mg/kg/injection, schedule: Q01DX005 (ip), vehicle: distilled water + Tween-80 107 % of control | dose: 50.0 mg/kg/injection, schedule: Q01DX005 (ip), vehicle: distilled water + Tween-80 112 % of control | dose: 100.0 mg/kg/injection, schedule: Q01DX005 (ip), vehicle: distilled water + Tween-80 116 % of control | dose: 200.0 mg/kg/injection, schedule: Q01DX005 (ip), vehicle: distilled water + Tween-80 119 % of control

CCOC(=O)/C=C(\C)SC1=CC(=O)c2ccccc2C1=O
inactive: dose: 3.13 mg/kg/injection, schedule: Q01DX009 (ip), vehicle: saline with Tween-80 86 % of control | dose: 6.25 mg/kg/injection, schedule: Q01DX009 (ip), vehicle: saline with Tween-80 94 % of control | [7] 99 % of control and 122 % of control | [8] 100 % of control and 111 % of control | [4] 100 % of control and 107 % of control

C[As+](C)(C)CC(=O)O
inactive: [9] 99 % of control | dose: 100.0 mg/kg/injection, schedule: Q01DX009 (ip), vehicle: saline 99 % of control | dose: 200.0 mg/kg/injection, schedule: Q01DX009 (ip), vehicle: saline 101 % of control

Cn1c(C(Cl)Cl)nc2ccccc2c1=O
inactive: dose: 12.5 mg/kg/injection, schedule: Q04DX003 (ip), vehicle: Klucel (hydroxypropylcellulose) (HPC) 95 % of control | dose: 25.0 mg/kg/injection, schedule: Q04DX003 (ip), vehicle: Klucel (hydroxypropylcellulose) (HPC) 104 % of control | dose: 50.0 mg/kg/injection, schedule: Q04DX003 (ip), vehicle: Klucel (hydroxypropylcellulose) (HPC) 104 % of control

CCC#CC(=O)O
inactive: dose: 25.0 mg/kg/injection, schedule: Q01DX009 (ip), vehicle: saline 96 % of control | [9] 95 % of control and 96 % of control

CCCC1c2c(ccc3c2OCO3)CC[N+]1(C)CCN(CC)CC (centres undefined)
inactive: dose: 6.25 mg/kg/injection, schedule: Q01DX005 (ip), vehicle: saline with Tween-80 109 % of control | dose: 12.5 mg/kg/injection, schedule: Q01DX005 (ip), vehicle: saline with Tween-80 98 % of control | dose: 25.0 mg/kg/injection, schedule: Q01DX005 (ip), vehicle: saline with Tween-80 100 % of control and 105 % of control

O=C(O)C(=O)O.O=C(O)C(=O)O.[Co+2].[NH-]CCC[NH-]
inactive: dose: 12.5 mg/kg/injection, schedule: Q04DX002 (ip), vehicle: saline 99 % of control

Nc1ncnc2c1ncn2C1CC(O)C(COC(c2ccccc2)(c2ccccc2)c2ccccc2)O1 (centres undefined)
inactive: [1] 95 % of control | [2] 91 % of control | [3] 86 % of control

S=C(S)C1=C(NCCCCCCNC2=C(C(=S)S)CCC2)CCC1
inactive: dose: 100.0 mg/kg/injection, schedule: Q01DX001 (ip), vehicle: Klucel (hydroxypropylcellulose) (HPC) 100 % of control | dose: 200.0 mg/kg/injection, schedule: Q01DX001 (ip), vehicle: Klucel (hydroxypropylcellulose) (HPC) 94 % of control | dose: 400.0 mg/kg/injection, schedule: Q01DX001 (ip), vehicle: Klucel (hydroxypropylcellulose) (HPC) 100 % of control

CCc1cc(C(=O)OC)c(=O)n2c1-c1[nH]c3ccccc3c1CC2
inactive: [1] 94 % of control | [2] 95 % of control | [3] 89 % of control

CCOC(=O)/C(=N/NS(=O)(=O)c1c(C)cc(C)cc1C)c1ccco1
inactive: [4] 113 % of control | [5] 106 % of control | [6] 104 % of control

O=C1c2ccccc2CN1Cc1ccc(Cl)c(Cl)c1
inactive: [4] 96 % of control | [5] 89 % of control | [6] 91 % of control

CCCCCCCCCCC(O)Cn1ccnc1 (centres undefined)
inactive: [7] 96 % of control | [8] 100 % of control | [4] 95 % of control

Cc1cc(C)cc(-n2cccc2C(=O)O)c1
inactive: dose: 60.0 mg/kg/injection, schedule: Q01DX005 (ip), vehicle: saline with Tween-80 93 % of control | dose: 120.0 mg/kg/injection, schedule: Q01DX005 (ip), vehicle: saline with Tween-80 99 % of control | dose: 240.0 mg/kg/injection, schedule: Q01DX005 (ip), vehicle: saline with Tween-80 100 % of control

[CH3][Sn]([CH3])([Cl])[CH2]CC[CH2][Sn]([Cl])([Cl])[Cl]
inactive: dose: 6.25 mg/kg/injection, schedule: Q01DX009 (ip), vehicle: saline 110 % of control | dose: 12.5 mg/kg/injection, schedule: Q01DX009 (ip), vehicle: saline 99 % of control

CC(=O)N1c2ccccc2C23CCN(C)CC4C(C)OCC(C4CC2=O)C13 (centres undefined)
inactive: dose: 2.0 mg/kg/injection, schedule: Q01DX009 (ip), vehicle: Klucel (hydroxypropylcellulose) (HPC) 100 % of control | dose: 4.0 mg/kg/injection, schedule: Q01DX009 (ip), vehicle: Klucel (hydroxypropylcellulose) (HPC) 95 % of control | dose: 8.0 mg/kg/injection, schedule: Q01DX009 (ip), vehicle: Klucel (hydroxypropylcellulose) (HPC) 98 % of control | dose: 16.0 mg/kg/injection, schedule: Q01DX009 (ip), vehicle: Klucel (hydroxypropylcellulose) (HPC) 100 % of control | dose: 32.0 mg/kg/injection, schedule: Q01DX009 (ip), vehicle: Klucel (hydroxypropylcellulose) (HPC) 100 % of control

C1CNC(SCC2CC3CC2C2OC32)=N1 (centres undefined)
inactive: [1] 98 % of control | [2] 101 % of control
